Test results as given in PubChem BioAssay AID330 (DTP/NCI, 2004).
Several values for one entry are separate records, joined by “and”; a condition that tells them apart may be missing. Equal values may be shown once. Inconclusive results and toxic doses are left out. How the source made its calls: active means survival T/C of 150% or more; inactive means T/C below 125% in these data.

Test system: P388 leukemia ip, CD2F1 mice, survival T/C
Assay: NCI In Vivo Anticancer Drug Screen. Data for tumor model P388 Leukemia (intraperitoneal) in CD2F1 (CDF1) mice
Settings: endpoint: median survival time, higher = longer survival
In short: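 Mice carrying the transplanted tumor received test compound or vehicle. Survival was recorded in each group, and the value is the treated-group measurement divided by that of the vehicle-treated control group.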

[1] = dose: 100.0 mg/kg/injection, schedule: Q04DX003 (ip), vehicle: saline with Tween-80
[2] = dose: 200.0 mg/kg/injection, schedule: Q04DX003 (ip), vehicle: saline with Tween-80
[3] = dose: 400.0 mg/kg/injection, schedule: Q04DX003 (ip), vehicle: saline with Tween-80
[4] = dose: 100.0 mg/kg/injection, schedule: Q01DX009 (ip), vehicle: saline with Tween-80
[5] = dose: 200.0 mg/kg/injection, schedule: Q01DX009 (ip), vehicle: saline with Tween-80
[6] = dose: 50.0 mg/kg/injection, schedule: Q01DX005 (ip), vehicle: Klucel (hydroxypropylcellulose) (HPC)
[7] = dose: 100.0 mg/kg/injection, schedule: Q01DX005 (ip), vehicle: Klucel (hydroxypropylcellulose) (HPC)
[8] = dose: 200.0 mg/kg/injection, schedule: Q01DX005 (ip), vehicle: Klucel (hydroxypropylcellulose) (HPC)
[9] = dose: 60.0 mg/kg/injection, schedule: Q01DX005 (ip), vehicle: Klucel (hydroxypropylcellulose) (HPC)
[10] = dose: 120.0 mg/kg/injection, schedule: Q01DX005 (ip), vehicle: Klucel (hydroxypropylcellulose) (HPC)
[11] = dose: 240.0 mg/kg/injection, schedule: Q01DX005 (ip), vehicle: Klucel (hydroxypropylcellulose) (HPC)
[12] = dose: 25.0 mg/kg/injection, schedule: Q01DX009 (ip), vehicle: saline with Tween-80
[13] = dose: 50.0 mg/kg/injection, schedule: Q01DX009 (ip), vehicle: saline with Tween-80
[14] = dose: 3.13 mg/kg/injection, schedule: Q01DX009 (ip), vehicle: saline
[15] = dose: 6.25 mg/kg/injection, schedule: Q01DX009 (ip), vehicle: saline
[16] = dose: 50.0 mg/kg/injection, schedule: Q01DX005 (ip), vehicle: saline with Tween-80
[17] = dose: 100.0 mg/kg/injection, schedule: Q01DX005 (ip), vehicle: saline with Tween-80
[18] = dose: 200.0 mg/kg/injection, schedule: Q01DX005 (ip), vehicle: saline with Tween-80

Measured: T/C

[CH3][Sn]([CH2]c1ccccc1)([CH2]c1ccccc1)[c]1ccccc1
inactive: [1] 98 % of control | [2] 105 % of control | [3] 100 % of control

O=C(O)/C=C/C(=O)NCc1ccco1
inactive: [4] 100 % of control | [1] 90 % of control | [5] 109 % of control | [2] 95 % of control | dose: 400.0 mg/kg/injection, schedule: Q01DX009 (ip), vehicle: saline with Tween-80 100 % of control | [3] 100 % of control

Cc1cc(=O)c2cc3nc(-c4cccnc4)oc3c(Br)c2o1
inactive: [6] 97 % of control | [7] 96 % of control | [8] 88 % of control

CCCCCCC1N=C(N)N=C(N)N1c1cccc(Cl)c1 (stereo not given)
inactive: dose: 12.5 mg/kg/injection, schedule: Q01DX005 (ip), vehicle: Klucel (hydroxypropylcellulose) (HPC) 118 % of control | dose: 25.0 mg/kg/injection, schedule: Q01DX005 (ip), vehicle: Klucel (hydroxypropylcellulose) (HPC) 114 % of control

COc1cc(CC(CC(=O)O)C(=O)O)cc(OC)c1OC (stereo not given)
inactive: [6] 97 % of control | [7] 88 % of control | [8] 97 % of control

OC(c1ccccc1)(C1CCNCC1)C1CC1 (stereo not given)
inactive: dose: 12.5 mg/kg/injection, schedule: Q01DX001 (ip), vehicle: saline 105 % of control | dose: 25.0 mg/kg/injection, schedule: Q01DX001 (ip), vehicle: saline 101 % of control and 97 % of control | dose: 50.0 mg/kg/injection, schedule: Q01DX001 (ip), vehicle: saline 103 % of control and 106 % of control | dose: 100.0 mg/kg/injection, schedule: Q01DX001 (ip), vehicle: Klucel (hydroxypropylcellulose) (HPC) 105 % of control | dose: 100.0 mg/kg/injection, schedule: Q01DX001 (ip), vehicle: saline 102 % of control

C=C1C[C@]23C[C@@]1(O)CC[C@H]2[C@@]12C=C[C@@H](O1)C(C(=O)OCC)=C2[C@@H]3O
inactive: dose: 3.75 mg/kg/injection, schedule: Q01DX005 (ip), vehicle: saline 109 % of control | dose: 7.5 mg/kg/injection, schedule: Q01DX005 (ip), vehicle: saline 100 % of control | dose: 15.0 mg/kg/injection, schedule: Q01DX005 (ip), vehicle: Klucel (hydroxypropylcellulose) (HPC) 97 % of control | dose: 15.0 mg/kg/injection, schedule: Q01DX005 (ip), vehicle: saline 107 % of control | [9] 117 % of control

COc1ccc(NC(=O)Nc2ccc(Cl)cc2)nn1
inactive: dose: 50.0 mg/kg/injection, schedule: Q01DX009 (ip), vehicle: Klucel (hydroxypropylcellulose) (HPC) 103 % of control | dose: 100.0 mg/kg/injection, schedule: Q01DX009 (ip), vehicle: Klucel (hydroxypropylcellulose) (HPC) 101 % of control | dose: 200.0 mg/kg/injection, schedule: Q01DX009 (ip), vehicle: Klucel (hydroxypropylcellulose) (HPC) 94 % of control

CC(CC(=O)O)C(C(=O)O)C(=O)O (stereo not given)
inactive: dose: 50.0 mg/kg/injection, schedule: Q01DX005 (ip), vehicle: saline 104 % of control | dose: 100.0 mg/kg/injection, schedule: Q01DX005 (ip), vehicle: saline 101 % of control

CC(=O)[C@]1(O)Cc2c(O)c3c(c(O)c2[C@@H](OC2CC(N)C(O)C(C)O2)C1)C(=O)c1c(OCc2ccccc2)cccc1C3=O (stereo not given in full)
inactive: dose: 12.5 mg/kg/injection, schedule: Q04DX003 (ip), vehicle: distilled water + Tween-80 101 % of control | dose: 100.0 mg/kg/injection, schedule: Q04DX003 (ip), vehicle: distilled water + Tween-80 91 % of control

CCC1=NO[C@@H](C(=O)OCc2ccccc2)[C@H]1C
inactive: dose: 60.0 mg/kg/injection, schedule: Q01DX005 (ip), vehicle: saline with Tween-80 113 % of control | dose: 120.0 mg/kg/injection, schedule: Q01DX005 (ip), vehicle: saline with Tween-80 103 % of control | dose: 240.0 mg/kg/injection, schedule: Q01DX005 (ip), vehicle: saline with Tween-80 95 % of control

O=C(NCC1OC(n2cnc3c(=O)[nH]cnc32)C(O)C1O)c1cccc(S(=O)(=O)F)c1 (stereo not given)
inactive: dose: 50.0 mg/kg/injection, schedule: Q01DX001 (ip), vehicle: saline with Tween-80 101 % of control | dose: 100.0 mg/kg/injection, schedule: Q01DX001 (ip), vehicle: saline with Tween-80 111 % of control | dose: 200.0 mg/kg/injection, schedule: Q01DX001 (ip), vehicle: saline with Tween-80 100 % of control

O=C(NC(CO)C(=O)OCc1ccccc1)OCCc1ccccn1 (stereo not given)
inactive: [9] 100 % of control | [10] 96 % of control | [11] 96 % of control

Cc1ccc(NP(=S)(Nc2ccc(C)cc2C)Nc2ccc(C)cc2C)c(C)c1
inactive: [9] 97 % of control | [10] 100 % of control | [11] 100 % of control

Cc1ccc(NC(=O)N2c3ccccc3SC2c2ccco2)c(C)c1 (stereo not given)
inactive: dose: 12.5 mg/kg/injection, schedule: Q01DX009 (ip), vehicle: saline with Tween-80 92 % of control | [12] 103 % of control | [13] 86 % of control and 92 % of control

Cc1cc(-c2ccccc2)c2ccccc2c1N(CC(=O)O)S(=O)(=O)c1ccccc1
inactive: [1] 100 % of control | [5] 115 % of control | [2] 100 % of control | [3] 90 % of control

CCCCCCCCCCCCCCCCS(=O)(=O)N/N=C(/c1ccccc1Cl)N1CCOCC1
inactive: [13] 92 % of control | [4] 93 % of control | [5] 94 % of control

S=C(S)N1CCCCC1
inactive: [14] 88 % of control | [15] 91 % of control | dose: 12.5 mg/kg/injection, schedule: Q01DX009 (ip), vehicle: saline 86 % of control | [12] 91 % of control | dose: 25.0 mg/kg/injection, schedule: Q01DX009 (ip), vehicle: saline 86 % of control

COc1ccc2c(c1)CN(CCc1ccccc1)CO2
inactive: [16] 101 % of control | [17] 101 % of control | [18] 97 % of control

O/N=C(Sc1ccccn1)/C(=N/O)Sc1ccccn1
inactive: [16] 101 % of control | [17] 109 % of control | [18] 113 % of control

c1ccc(-c2cc3nncc(-c4ccccc4)n3n2)cc1
inactive: [6] 107 % of control | [7] 105 % of control | [8] 96 % of control

Cc1cccc2c(-c3ccccc3)c3cccc[n+]3cc12
inactive: dose: 0.78 mg/kg/injection, schedule: Q01DX005 (ip), vehicle: Klucel (hydroxypropylcellulose) (HPC) 100 % of control and 103 % of control | dose: 1.56 mg/kg/injection, schedule: Q01DX005 (ip), vehicle: Klucel (hydroxypropylcellulose) (HPC) 108 % of control and 89 % of control | dose: 3.12 mg/kg/injection, schedule: Q01DX005 (ip), vehicle: Klucel (hydroxypropylcellulose) (HPC) 103 % of control and 97 % of control | dose: 6.25 mg/kg/injection, schedule: Q01DX005 (ip), vehicle: Klucel (hydroxypropylcellulose) (HPC) 94 % of control

C[n+]1ccc2cc(-c3ccccc3)c3ccccc3c2c1
inactive: dose: 1.56 mg/kg/injection, schedule: Q01DX009 (ip), vehicle: saline 109 % of control | [14] 116 % of control | [15] 109 % of control

c1ccc(COCC(COCc2ccccc2)(COCc2ccccc2)COCc2ccccc2)cc1
inactive: dose: 12.5 mg/kg/injection, schedule: Q01DX009 (ip), vehicle: saline + alcohol 105 % of control | dose: 25.0 mg/kg/injection, schedule: Q01DX009 (ip), vehicle: saline + alcohol 104 % of control | dose: 50.0 mg/kg/injection, schedule: Q01DX009 (ip), vehicle: saline + alcohol 97 % of control
